Values joined by “and” are separate entries in the source; they are usually repeats but may differ in a detail not shown here. Identical values can stand only once. “Also recorded” adds a separate entry of the source.
Assays:
[1] = extensive studies in animals; cited from earlier work
gastrointestinal tract = assay: Aminosterol Induced GI Response after oral capsule in a human; type: in vivo
Method: Gelatin capsules were prepared for oral administration. Capsules were coated in shellac to prevent their release within the stomach. Furthermore, because squalamine and related aminosterols have antibiotic activity, enteric coating prevents the drug from altering the microbial populations of the stomach. […] Squalamine dilactate powder, 99% pure, or 1436 hydrochloride, 99% pure, was added manually into either Size 0 (for the 200 mg dose) or Size 1 (for the 100 mg dose) gelatin capsules. No excipient was added. The capsules were coated twice in 5% shellac (80% acetone/20% ethanol) and dried before use.
200 mg of squalamine (lactate salt, excipient free) in a coated gelatin capsule was administered orally to a human in the morning on an empty stomach, with water. Squalamine was synthesized as described in Zasloff et al 2011. Within 2 hours nausea was experienced, lasting about 30 minutes. At 2.5 hours, increased peristalsis (“rumbling gut”) was experienced, lasting several minutes. At about 3 hours, a clear watery discharge of about 200 ml was passed rectally. A second episode occurred at 3.2 hours. Following this episode, bowel sounds quieted. No nausea or discomfort was subsequently experienced. Appetite was near normal. Despite normal feeding, feces were not passed for 2.5 days over which time no discomfort was experienced. The first feces passed after this quiescent period was soft and relatively small considering the intake of food and the time interval. Usual bowel functions resumed by about 4 days after squalamine administration.
200 mg of 1436 (HCl salt, excipients free) in a gelatin capsule was administered orally to a human in the morning on an empty stomach, with water. […] At 2 hours, about 100 ml of clear watery diarrhea, recurring at 2.75 hours, 3 hours, 3.25 hours, and 4 hours, with progressively lesser volumes of liquid discharged. First bowel movement was passed at 3.5 days, of normal consistency. The subject experienced no abdominal discomfort, bloating, etc over this period. Usual bowel functions resumed by about 4.5 days after administration of Aminosterol 1436. […]
100 mg of squalamine was orally administered in a capsule as in the first example. […] A period of “bowel quiet” was induced, however, that lasted 2 days, after which normally formed feces were passed.

HIV = settings: tissue culture; cited from earlier work
appetite and body weight = settings: cited from earlier work
[2] = single 200 mg oral capsule, morning, empty stomach, one human

Which results are given for CC(C)[C@@H](CC[C@@H](C)[C@H]1CC[C@H]2[C@@H]3[C@H](O)C[C@H]4C[C@@H](NCCCNCCCCNCCCN)CC[C@]4(C)[C@H]3CC[C@]12C)OS(=O)(=O)O [Aminosterol 1436]?
absorption from the gastrointestinal tract [1]: neither squalamine nor Aminosterol 1436 can be absorbed to any extent; duration of the Aminosterol-Induced GI Response (gastrointestinal tract; following a single 200 mg oral dose): about 4 days; first clear watery rectal discharge / diarrhea, time after dosing (gastrointestinal tract; [2]): 2 h; further episodes of watery discharge, time after dosing (gastrointestinal tract; [2]): 2.75 h and 3 h and 3.25 h and 4 h; increased peristalsis, time after dosing (gastrointestinal tract; [2]): ≤ 1 h; usual bowel functions resumed, time after administration (gastrointestinal tract; [2]): about 4.5 days; volume of first clear watery discharge (gastrointestinal tract; [2]): about 100 ml; time without feces / to first bowel movement after dosing (gastrointestinal tract; single 200 mg oral capsule, morning, empty stomach, normal behavior about 1 passage every 24 hours): 3.5 days; estimated reduction of small intestinal motility (gastrointestinal tract; single 200 mg oral dose, versus normal about 1 passage every 24 hours): 3.5 fold; antiviral activity (HIV): exhibits antiviral activity against HIV; anorectic activity when administered orally (appetite and body weight; oral, dogs and rodents): no anorectic activity; appetite and weight on parenteral administration (appetite and body weight; parenteral): potent appetite suppression and promotion of dose-dependent weight loss; also recorded: capable of inducing weight loss

From US10975116B2, “Methods of treating and preventing gastrointestinal motility disorders using aminosterols” (Enterin, Inc., priority 2013, dated 2021)
